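Five compound concentrations were applied to cells in 96-well plates for 48 hours; endpoints were derived by simple linear interpolation of the resulting dose-response curve. GI50 marks 50% less growth. Definition used: TGI = concentration required for complete inhibition of growth.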
Key:
Experiment in all cases: DTP human tumour cell line panel, 48 h
HCT-116 colon = system: HCT-116 colon
HCC-2998 colon = system: HCC-2998 colon
NCI-H522 lung = system: NCI-H522 lung
HS 578T breast = system: HS 578T breast
KM12 colon = system: KM12 colon
SR leukemia = system: SR leukemia
A498 renal = system: A498 renal
A549 NSCLC = system: A549 NSCLC
MALME-3M melanoma = system: MALME-3M melanoma
OVCAR-8 ovarian = system: OVCAR-8 ovarian
ACHN renal = system: ACHN renal
U251 CNS = system: U251 CNS
DU-145 prostate = system: DU-145 prostate
HCT-15 colon = system: HCT-15 colon
SN12C renal = system: SN12C renal
RPMI-8226 leukemia = system: RPMI-8226 leukemia
UACC-62 melanoma = system: UACC-62 melanoma
HT29 colon = system: HT29 colon
NCI-H226 lung = system: NCI-H226 lung
MDA-MB-435 = system: MDA-MB-435
T-47D breast = system: T-47D breast
CCRF-CEM leukemia = system: CCRF-CEM leukemia
NCI-H460 lung = system: NCI-H460 lung
MCF7 breast = system: MCF7 breast
RXF 393 renal = system: RXF 393 renal
SW-620 colon = system: SW-620 colon
SK-MEL-5 melanoma = system: SK-MEL-5 melanoma
PC-3 prostate = system: PC-3 prostate
SF-295 CNS = system: SF-295 CNS
786-0 renal = system: 786-0 renal
IGROV1 ovarian = system: IGROV1 ovarian
LOX IMVI melanoma = system: LOX IMVI melanoma
OVCAR-3 ovarian = system: OVCAR-3 ovarian
HOP-92 NSCLC = system: HOP-92 NSCLC
UACC-257 melanoma = system: UACC-257 melanoma
MDA-MB-231 breast = system: MDA-MB-231 breast
SNB-19 CNS = system: SNB-19 CNS
SK-MEL-28 melanoma = system: SK-MEL-28 melanoma
OVCAR-4 ovarian = system: OVCAR-4 ovarian
SF-268 CNS = system: SF-268 CNS
TK-10 renal = system: TK-10 renal
HOP-62 NSCLC = system: HOP-62 NSCLC
UO-31 renal = system: UO-31 renal
EKVX NSCLC = system: EKVX NSCLC
NCI-H23 lung = system: NCI-H23 lung
BT-549 breast = system: BT-549 breast
COLO 205 colon = system: COLO 205 colon
MOLT-4 leukemia = system: MOLT-4 leukemia
K-562 leukemia = system: K-562 leukemia
M14 melanoma = system: M14 melanoma
OVCAR-5 ovarian = system: OVCAR-5 ovarian
SF-539 CNS = system: SF-539 CNS
NCI/ADR-RES ovarian = system: NCI/ADR-RES ovarian
HL-60(TB) leukemia = system: HL-60(TB) leukemia
SK-OV-3 ovarian = system: SK-OV-3 ovarian
SK-MEL-2 melanoma = system: SK-MEL-2 melanoma
CAKI-1 renal = system: CAKI-1 renal

SMILES: NCCCNc1ccc2c(c1)[n+]([O-])c1ccccc1[n+]2[O-]
- TGI (HCT-116 colon): 63.7 µM
- TGI (HCC-2998 colon): > 100 µM
- TGI (NCI-H522 lung): 30.7 µM
- TGI (HS 578T breast): 60 µM
- TGI (KM12 colon): 80.3 µM
- TGI (SR leukemia): 61.4 µM
- TGI (A498 renal): 47.8 µM
- TGI (A549 NSCLC): > 100 µM
- TGI (MALME-3M melanoma): 46.6 µM
- TGI (OVCAR-8 ovarian): > 100 µM
- TGI (ACHN renal): 77.7 µM
- TGI (U251 CNS): 91.9 µM
- TGI (DU-145 prostate): 70.8 µM
- TGI (HCT-15 colon): 66.3 µM
- TGI (SN12C renal): > 100 µM
- TGI (RPMI-8226 leukemia): 54.4 µM
- TGI (UACC-62 melanoma): 49.2 µM
- TGI (HT29 colon): > 100 µM
- TGI (NCI-H226 lung): 45.5 µM
- TGI (MDA-MB-435): > 100 µM
- TGI (T-47D breast): 69.6 µM
- TGI (CCRF-CEM leukemia): 91.4 µM
- TGI (NCI-H460 lung): 53.6 µM
- TGI (MCF7 breast): > 100 µM
- TGI (RXF 393 renal): 55.9 µM
- TGI (SW-620 colon): > 100 µM
- TGI (SK-MEL-5 melanoma): 31.8 µM
- TGI (PC-3 prostate): > 100 µM
- TGI (SF-295 CNS): > 100 µM
- TGI (786-0 renal): > 100 µM
- TGI (IGROV1 ovarian): 41.5 µM
- TGI (LOX IMVI melanoma): 94.3 µM
- TGI (OVCAR-3 ovarian): 50.5 µM
- TGI (HOP-92 NSCLC): 62.6 µM
- TGI (UACC-257 melanoma): 83.2 µM
- TGI (MDA-MB-231 breast): 57.6 µM
- TGI (SNB-19 CNS): > 100 µM
- TGI (SK-MEL-28 melanoma): > 100 µM
- TGI (OVCAR-4 ovarian): 92.6 µM
- TGI (SF-268 CNS): > 100 µM
- TGI (TK-10 renal): > 100 µM
- TGI (HOP-62 NSCLC): 93.5 µM
- TGI (UO-31 renal): > 100 µM
- TGI (EKVX NSCLC): > 100 µM
- TGI (NCI-H23 lung): 97.5 µM
- TGI (BT-549 breast): 64 µM
- TGI (COLO 205 colon): 45.2 µM
- TGI (MOLT-4 leukemia): 67.2 µM
- TGI (K-562 leukemia): > 100 µM
- TGI (M14 melanoma): > 100 µM
- TGI (OVCAR-5 ovarian): > 100 µM
- TGI (SF-539 CNS): 53.9 µM
- TGI (NCI/ADR-RES ovarian): > 100 µM
- TGI (HL-60(TB) leukemia): 57.6 µM
- TGI (SK-OV-3 ovarian): 50.4 µM

SMILES: CN(C(=O)OC(C)(C)C)[C@H]1CCCC[C@H]1N1CCCC1
- TGI (HCT-116 colon): > 100 µM
- TGI (SK-MEL-2 melanoma): > 100 µM
- TGI (NCI-H522 lung): > 100 µM
- TGI (HS 578T breast): > 100 µM
- TGI (KM12 colon): > 100 µM
- TGI (SR leukemia): > 100 µM
- TGI (A498 renal): > 100 µM
- TGI (A549 NSCLC): > 100 µM
- TGI (MALME-3M melanoma): > 100 µM
- TGI (CAKI-1 renal): > 100 µM
- TGI (OVCAR-8 ovarian): > 100 µM
- TGI (ACHN renal): > 100 µM
- TGI (U251 CNS): > 100 µM
- TGI (DU-145 prostate): > 100 µM
- TGI (HCT-15 colon): > 100 µM
- TGI (SN12C renal): > 100 µM
- TGI (RPMI-8226 leukemia): > 100 µM
- TGI (UACC-62 melanoma): > 100 µM
- TGI (HT29 colon): > 100 µM
- TGI (NCI-H226 lung): > 100 µM
- TGI (MDA-MB-435): > 100 µM
- TGI (T-47D breast): > 100 µM
- TGI (CCRF-CEM leukemia): > 100 µM
- TGI (MCF7 breast): > 100 µM
- TGI (SW-620 colon): > 100 µM
- TGI (SK-MEL-5 melanoma): > 100 µM
- TGI (PC-3 prostate): > 100 µM
- TGI (SF-295 CNS): > 100 µM
- TGI (786-0 renal): > 100 µM
- TGI (IGROV1 ovarian): > 100 µM
- TGI (LOX IMVI melanoma): > 100 µM
- TGI (OVCAR-3 ovarian): > 100 µM
- TGI (UACC-257 melanoma): > 100 µM
- TGI (MDA-MB-231 breast): > 100 µM
- TGI (SNB-19 CNS): > 100 µM
- TGI (SK-MEL-28 melanoma): > 100 µM
- TGI (OVCAR-4 ovarian): > 100 µM
- TGI (SF-268 CNS): > 100 µM
- TGI (TK-10 renal): > 100 µM
- TGI (HOP-62 NSCLC): > 100 µM
- TGI (UO-31 renal): > 100 µM
- TGI (EKVX NSCLC): > 100 µM
- TGI (NCI-H23 lung): > 100 µM
- TGI (BT-549 breast): > 100 µM
- TGI (COLO 205 colon): > 100 µM
- TGI (MOLT-4 leukemia): > 100 µM
- TGI (K-562 leukemia): > 100 µM
- TGI (M14 melanoma): > 100 µM
- TGI (OVCAR-5 ovarian): > 100 µM
- TGI (SF-539 CNS): > 100 µM
- TGI (NCI/ADR-RES ovarian): > 100 µM
- TGI (HL-60(TB) leukemia): > 100 µM
- TGI (SK-OV-3 ovarian): > 100 µM

SMILES: C[C@H](c1ccc(Cl)cc1N)N1C(=O)c2cc(I)ccc2N(CCCN2CCN(C)CC2)C(=O)[C@@H]1c1ccc(Cl)cc1
- GI50 (HCT-116 colon): 1.3 µM
- TGI (HCT-116 colon): 2.63 µM
- GI50 (HCC-2998 colon): 1.63 µM
- TGI (HCC-2998 colon): 3.03 µM
- GI50 (SK-MEL-2 melanoma): 1.81 µM
- TGI (SK-MEL-2 melanoma): 3.37 µM
- GI50 (HS 578T breast): 1.74 µM
- TGI (HS 578T breast): 3.84 µM
- GI50 (KM12 colon): 1.78 µM
- TGI (KM12 colon): 3.24 µM
- GI50 (SR leukemia): 1.01 µM
- TGI (SR leukemia): 2.6 µM
- GI50 (A498 renal): 1.3 µM
- TGI (A498 renal): 2.7 µM
- GI50 (A549 NSCLC): 1.3 µM
- TGI (A549 NSCLC): 2.57 µM
- GI50 (MALME-3M melanoma): 0.242 µM
- TGI (MALME-3M melanoma): 1.27 µM
- GI50 (CAKI-1 renal): 1.3 µM
- TGI (CAKI-1 renal): 2.81 µM
- GI50 (ACHN renal): 1.22 µM
- TGI (ACHN renal): 2.5 µM
- GI50 (U251 CNS): 1.52 µM
- TGI (U251 CNS): 2.85 µM
- GI50 (DU-145 prostate): 1.79 µM
- TGI (DU-145 prostate): 3.31 µM
- GI50 (HCT-15 colon): 1.68 µM
- TGI (HCT-15 colon): 3.2 µM
- GI50 (SN12C renal): 1.59 µM
- TGI (SN12C renal): 3.03 µM
- GI50 (RPMI-8226 leukemia): 1.7 µM
- TGI (RPMI-8226 leukemia): 3.69 µM
- GI50 (UACC-62 melanoma): 1.23 µM
- TGI (UACC-62 melanoma): 2.54 µM
- GI50 (HT29 colon): 1.82 µM
- TGI (HT29 colon): 3.47 µM
- GI50 (NCI-H226 lung): 1.33 µM
- TGI (NCI-H226 lung): 2.86 µM
- GI50 (MDA-MB-435): 1.81 µM
- TGI (MDA-MB-435): 3.57 µM
- GI50 (CCRF-CEM leukemia): 1.63 µM
- TGI (CCRF-CEM leukemia): 3.47 µM
- GI50 (NCI-H460 lung): 1.32 µM
- TGI (NCI-H460 lung): 2.71 µM
- GI50 (MCF7 breast): 1.15 µM
- TGI (MCF7 breast): 2.41 µM
- GI50 (SW-620 colon): 1.72 µM
- TGI (SW-620 colon): 3.14 µM
- GI50 (SK-MEL-5 melanoma): 1.57 µM
- TGI (SK-MEL-5 melanoma): 2.92 µM
- GI50 (786-0 renal): 1.83 µM
- TGI (786-0 renal): 3.37 µM
- GI50 (IGROV1 ovarian): 1.29 µM
- TGI (IGROV1 ovarian): 3.12 µM
- GI50 (OVCAR-3 ovarian): 1.8 µM
- TGI (OVCAR-3 ovarian): 3.28 µM
- GI50 (UACC-257 melanoma): 1.24 µM
- TGI (UACC-257 melanoma): 2.69 µM
- GI50 (MDA-MB-231 breast): 1.53 µM
- TGI (MDA-MB-231 breast): 2.97 µM
- GI50 (SNB-19 CNS): 1.52 µM
- TGI (SNB-19 CNS): 2.9 µM
- GI50 (SK-MEL-28 melanoma): 1.69 µM
- TGI (SK-MEL-28 melanoma): 3.08 µM
- GI50 (OVCAR-4 ovarian): 1.74 µM
- TGI (OVCAR-4 ovarian): 3.43 µM
- GI50 (SF-268 CNS): 1.7 µM
- TGI (SF-268 CNS): 3.2 µM
- GI50 (TK-10 renal): 1.61 µM
- TGI (TK-10 renal): 3.07 µM
- GI50 (UO-31 renal): 0.359 µM
- TGI (UO-31 renal): 1.9 µM
- GI50 (EKVX NSCLC): 1.55 µM
- TGI (EKVX NSCLC): 3.21 µM
- GI50 (NCI-H23 lung): 2.18 µM
- TGI (NCI-H23 lung): 5.86 µM
- GI50 (MOLT-4 leukemia): 1.75 µM
- TGI (MOLT-4 leukemia): 3.59 µM
- GI50 (K-562 leukemia): 1.57 µM
- TGI (K-562 leukemia): 3.3 µM
- GI50 (M14 melanoma): 1.96 µM
- TGI (M14 melanoma): 3.65 µM
- GI50 (OVCAR-5 ovarian): 1.77 µM
- TGI (OVCAR-5 ovarian): 3.44 µM
- GI50 (NCI/ADR-RES ovarian): 1.7 µM
- TGI (NCI/ADR-RES ovarian): 3.6 µM
- GI50 (HL-60(TB) leukemia): 1.89 µM
- TGI (HL-60(TB) leukemia): 3.69 µM
- GI50 (SK-OV-3 ovarian): 1.81 µM
- TGI (SK-OV-3 ovarian): 3.2 µM
